Source: ChEMBL document CHEMBL1201862, “PubChem BioAssay data set” (2004)
Blank lines part the entries; values can stand above or below the molecule they belong to. Activity calls are given as the source filed them.

Tests used:
Format in all cases: functional
Cannabinoid receptor 2 [1] = biological target: T1, Cannabinoid receptor 2 (Homo sapiens, UniProt P34972); experiment: SAR analysis of antagonists of the Cannabinoid Receptor 2 using an Image-Based Assay. [Related pubchem assays (depositor defined):AID2013, AID2026]
T1 sequence (P34972 whole entry): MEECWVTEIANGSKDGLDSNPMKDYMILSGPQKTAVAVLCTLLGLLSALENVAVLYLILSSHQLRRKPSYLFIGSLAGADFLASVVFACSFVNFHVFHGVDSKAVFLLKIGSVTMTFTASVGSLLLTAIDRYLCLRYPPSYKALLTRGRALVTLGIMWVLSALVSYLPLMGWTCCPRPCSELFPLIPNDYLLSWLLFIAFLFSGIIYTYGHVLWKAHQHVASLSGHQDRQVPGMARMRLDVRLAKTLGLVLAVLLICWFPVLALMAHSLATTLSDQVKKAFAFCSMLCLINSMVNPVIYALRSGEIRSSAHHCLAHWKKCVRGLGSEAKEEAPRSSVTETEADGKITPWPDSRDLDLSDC

Cannabinoid receptor 2 [2] = biological target: T1, Cannabinoid receptor 2; experiment: SAR analysis of agonists of the Cannabinoid Receptor 2 using an Image-Based Assay. [Related pubchem assays (depositor defined):AID2013, AID2026]
Cannabinoid receptor 1 [3] = biological target: T2, Cannabinoid receptor 1 (Homo sapiens, UniProt P21554); experiment: SAR analysis of antagonists of the Cannabinoid Receptor 1 using an Image-Based Assay - Set 2. [Related pubchem assays (depositor defined):AID2013, AID2026]
T2 sequence (P21554 whole entry): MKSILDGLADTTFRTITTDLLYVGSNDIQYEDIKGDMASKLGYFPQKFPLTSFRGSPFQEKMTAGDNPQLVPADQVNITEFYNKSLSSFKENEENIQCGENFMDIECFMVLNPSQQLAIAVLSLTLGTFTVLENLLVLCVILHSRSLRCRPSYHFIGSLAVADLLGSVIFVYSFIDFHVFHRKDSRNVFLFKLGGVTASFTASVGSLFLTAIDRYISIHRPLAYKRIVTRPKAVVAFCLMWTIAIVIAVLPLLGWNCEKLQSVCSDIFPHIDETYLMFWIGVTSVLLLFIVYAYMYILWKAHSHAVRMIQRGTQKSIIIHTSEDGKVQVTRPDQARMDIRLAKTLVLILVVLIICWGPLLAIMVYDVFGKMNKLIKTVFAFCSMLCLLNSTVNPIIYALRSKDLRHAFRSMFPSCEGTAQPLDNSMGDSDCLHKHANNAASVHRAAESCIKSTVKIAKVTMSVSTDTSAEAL

[4] = biological target: T3, G-protein coupled receptor 55 (Homo sapiens, UniProt Q9Y2T6); experiment: inhibition of LPI-stimulated GPR55 beta-arrestin translocation – imaging, U2OS, beta-arrestin-GFP, LPI agonist, primary screen (AID 2013);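 also: antagonist potency measured as reduced agonist-driven arrestin aggregation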
T3 sequence (Q9Y2T6 whole entry): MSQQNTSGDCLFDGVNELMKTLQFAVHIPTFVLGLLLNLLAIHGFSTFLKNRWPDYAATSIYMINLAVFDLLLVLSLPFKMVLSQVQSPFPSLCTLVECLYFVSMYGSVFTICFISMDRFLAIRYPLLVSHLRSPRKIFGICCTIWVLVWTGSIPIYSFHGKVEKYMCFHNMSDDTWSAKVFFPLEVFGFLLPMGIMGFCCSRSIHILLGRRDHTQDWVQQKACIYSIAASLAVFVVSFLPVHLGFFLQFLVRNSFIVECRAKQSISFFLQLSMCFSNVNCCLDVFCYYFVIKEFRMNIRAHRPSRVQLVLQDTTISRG

[5] = biological target: T4, G-protein coupled receptor 35 (Homo sapiens, UniProt Q9HC97); experiment: SAR analysis of Agonists of the GPR35 Receptor using an Image-Based Assay - Set 2. [Related pubchem assays (depositor defined):AID2013, AID2026]
T4 sequence (Q9HC97 whole entry): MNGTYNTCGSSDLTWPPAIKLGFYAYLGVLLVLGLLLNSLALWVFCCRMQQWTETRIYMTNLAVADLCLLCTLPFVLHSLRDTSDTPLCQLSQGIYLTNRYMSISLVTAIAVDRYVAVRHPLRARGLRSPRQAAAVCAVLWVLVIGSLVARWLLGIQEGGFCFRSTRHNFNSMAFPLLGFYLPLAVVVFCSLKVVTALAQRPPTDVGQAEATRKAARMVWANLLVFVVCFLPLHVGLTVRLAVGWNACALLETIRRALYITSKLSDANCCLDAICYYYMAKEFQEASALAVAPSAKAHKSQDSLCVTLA

Cannabinoid receptor 1 [6] = biological target: T2, Cannabinoid receptor 1; experiment: SAR analysis of agonists of the Cannabinoid Receptor 1 using an Image-Based Assay - Set 2. [Related pubchem assays (depositor defined):AID2013, AID2026]
[7] = biological target: T3, G-protein coupled receptor 55; experiment: blockade of LPI-induced GPR55 arrestin translocation – imaging, U2OS, beta-arrestin-GFP, LPI agonist, set 2, SAR follow-up (AID 2820)
[8] = biological target: T4, G-protein coupled receptor 35; experiment: SAR analysis of Antagonists of the GPR35 Receptor using an Image-Based Assay - Set 3. [Related pubchem assays (depositor defined):AID2013, AID2026]
[9] = biological target: T5, Tyrosine-protein phosphatase non-receptor type 22 (Homo sapiens, UniProt Q9Y2R2); experiment: SAR LYP1 Fluorescent Assay using OMFP substrate for In Vitro dose response studies - Set 2. [Related pubchem assays (depositor defined):AID1779, AID1784, AID2140, AID449726, AID488869]
T5 sequence (Q9Y2R2 whole entry): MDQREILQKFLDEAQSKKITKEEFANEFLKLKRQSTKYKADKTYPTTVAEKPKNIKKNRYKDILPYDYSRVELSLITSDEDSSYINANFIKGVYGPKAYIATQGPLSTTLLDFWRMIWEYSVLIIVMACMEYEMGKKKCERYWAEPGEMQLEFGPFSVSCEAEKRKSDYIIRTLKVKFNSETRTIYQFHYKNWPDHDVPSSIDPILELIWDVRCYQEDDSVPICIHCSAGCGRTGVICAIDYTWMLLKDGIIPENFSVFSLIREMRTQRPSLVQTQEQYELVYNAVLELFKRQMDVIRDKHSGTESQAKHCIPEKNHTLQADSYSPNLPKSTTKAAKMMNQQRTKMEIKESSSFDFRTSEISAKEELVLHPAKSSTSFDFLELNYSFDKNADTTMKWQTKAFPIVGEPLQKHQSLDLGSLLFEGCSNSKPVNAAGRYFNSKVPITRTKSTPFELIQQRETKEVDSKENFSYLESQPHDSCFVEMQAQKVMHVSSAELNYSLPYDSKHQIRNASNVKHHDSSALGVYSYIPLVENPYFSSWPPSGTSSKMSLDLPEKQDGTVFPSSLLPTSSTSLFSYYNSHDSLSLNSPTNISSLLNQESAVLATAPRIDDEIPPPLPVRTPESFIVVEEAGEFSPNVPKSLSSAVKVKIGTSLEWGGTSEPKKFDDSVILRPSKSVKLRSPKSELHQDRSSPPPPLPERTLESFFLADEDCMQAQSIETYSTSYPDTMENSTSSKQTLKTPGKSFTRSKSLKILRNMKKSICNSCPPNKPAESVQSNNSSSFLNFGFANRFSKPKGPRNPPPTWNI

[10] = biological target: T5, Tyrosine-protein phosphatase non-receptor type 22; experiment: SAR LYP1 Fluorescent Assay using pCAP substrate for In Vitro dose response studies - Set 2. [Related pubchem assays (depositor defined):AID1779, AID1784, AID2135, AID449727]
[11] = biological target: Tyrosine-protein phosphatase non-receptor type 12 (Homo sapiens, UniProt Q05209); experiment: SAR Selectivity Analysis of small molecule inhibitors of PEST using pCAP in a fluorescence assay. [Related pubchem assays (depositor defined):AID1779, AID1784, AID2135]
Sequence of Tyrosine-protein phosphatase non-receptor type 12 (Q05209 whole entry): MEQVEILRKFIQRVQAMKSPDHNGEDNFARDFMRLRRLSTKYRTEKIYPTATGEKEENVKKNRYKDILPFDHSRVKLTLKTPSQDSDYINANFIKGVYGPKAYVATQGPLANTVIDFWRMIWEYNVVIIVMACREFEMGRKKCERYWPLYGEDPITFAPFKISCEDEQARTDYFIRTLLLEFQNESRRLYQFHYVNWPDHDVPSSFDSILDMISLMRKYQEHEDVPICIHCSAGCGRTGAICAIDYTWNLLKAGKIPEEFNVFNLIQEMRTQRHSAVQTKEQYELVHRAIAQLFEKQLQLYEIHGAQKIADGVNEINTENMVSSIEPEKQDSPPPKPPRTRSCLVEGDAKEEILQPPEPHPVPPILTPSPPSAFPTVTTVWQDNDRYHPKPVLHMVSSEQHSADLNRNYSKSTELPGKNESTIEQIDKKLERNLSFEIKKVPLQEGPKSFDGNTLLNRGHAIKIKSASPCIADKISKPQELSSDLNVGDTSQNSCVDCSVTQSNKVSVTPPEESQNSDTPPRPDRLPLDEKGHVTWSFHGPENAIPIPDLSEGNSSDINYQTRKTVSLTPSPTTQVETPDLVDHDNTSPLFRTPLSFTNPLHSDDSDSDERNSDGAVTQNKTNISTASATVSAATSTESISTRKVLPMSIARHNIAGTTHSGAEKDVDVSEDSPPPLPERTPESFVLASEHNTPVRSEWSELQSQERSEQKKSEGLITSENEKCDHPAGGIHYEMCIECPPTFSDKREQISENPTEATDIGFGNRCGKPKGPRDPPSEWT

[12] = biological target: T5, Tyrosine-protein phosphatase non-receptor type 22; experiment: SAR LYP1 Fluorescent Assay using OMFP substrate for In Vitro dose response studies - Set 3. [Related pubchem assays (depositor defined):AID1779, AID1784, AID2140, AID2686]
[13] = biological target: T5, Tyrosine-protein phosphatase non-receptor type 22; experiment: inhibition of lymphoid tyrosine phosphatase LYP – biochemical, pCAP fluorogenic substrate, fluorescence, set 3, SAR follow-up (AID 449727)
[14] = biological target: T6, Tyrosine-protein phosphatase non-receptor type 7 (Homo sapiens, UniProt P35236); experiment: inhibition of hematopoietic tyrosine phosphatase HePTP – biochemical, set 2, SAR follow-up (AID 449736)
T6 sequence (P35236 whole entry): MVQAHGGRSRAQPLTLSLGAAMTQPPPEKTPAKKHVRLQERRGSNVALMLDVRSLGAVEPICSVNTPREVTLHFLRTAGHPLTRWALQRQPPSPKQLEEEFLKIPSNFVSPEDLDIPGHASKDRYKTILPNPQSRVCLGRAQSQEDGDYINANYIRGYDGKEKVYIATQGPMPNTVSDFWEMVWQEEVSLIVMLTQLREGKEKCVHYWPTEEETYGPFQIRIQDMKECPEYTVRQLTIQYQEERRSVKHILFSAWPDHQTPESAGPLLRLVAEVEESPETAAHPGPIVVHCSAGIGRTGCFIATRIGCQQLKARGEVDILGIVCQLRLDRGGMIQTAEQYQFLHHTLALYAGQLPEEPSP

[15] = biological target: Intestinal-type alkaline phosphatase (Homo sapiens, UniProt P09923); experiment: activation of human intestinal alkaline phosphatase – biochemical, dose response (AID 488873)
Sequence of Intestinal-type alkaline phosphatase (Homo sapiens, UniProt P09923) (P09923 whole entry): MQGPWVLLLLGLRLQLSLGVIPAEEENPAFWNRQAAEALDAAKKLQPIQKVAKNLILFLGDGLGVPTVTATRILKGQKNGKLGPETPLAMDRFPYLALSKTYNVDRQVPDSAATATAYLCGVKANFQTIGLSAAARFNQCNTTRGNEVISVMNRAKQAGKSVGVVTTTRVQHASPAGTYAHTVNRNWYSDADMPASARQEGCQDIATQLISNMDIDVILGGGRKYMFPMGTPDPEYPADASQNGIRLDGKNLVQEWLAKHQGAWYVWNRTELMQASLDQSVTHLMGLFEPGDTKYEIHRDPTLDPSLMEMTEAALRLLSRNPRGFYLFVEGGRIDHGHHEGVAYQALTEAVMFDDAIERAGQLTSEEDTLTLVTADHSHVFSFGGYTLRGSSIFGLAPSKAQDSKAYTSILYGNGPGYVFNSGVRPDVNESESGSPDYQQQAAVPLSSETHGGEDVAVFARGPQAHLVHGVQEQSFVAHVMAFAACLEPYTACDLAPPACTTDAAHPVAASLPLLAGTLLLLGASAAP

[16] = biological target: Intestinal-type alkaline phosphatase (Mus musculus, UniProt P24822); experiment: PubChem AID 488785
Sequence of Intestinal-type alkaline phosphatase (Mus musculus, UniProt P24822) (P24822 whole entry): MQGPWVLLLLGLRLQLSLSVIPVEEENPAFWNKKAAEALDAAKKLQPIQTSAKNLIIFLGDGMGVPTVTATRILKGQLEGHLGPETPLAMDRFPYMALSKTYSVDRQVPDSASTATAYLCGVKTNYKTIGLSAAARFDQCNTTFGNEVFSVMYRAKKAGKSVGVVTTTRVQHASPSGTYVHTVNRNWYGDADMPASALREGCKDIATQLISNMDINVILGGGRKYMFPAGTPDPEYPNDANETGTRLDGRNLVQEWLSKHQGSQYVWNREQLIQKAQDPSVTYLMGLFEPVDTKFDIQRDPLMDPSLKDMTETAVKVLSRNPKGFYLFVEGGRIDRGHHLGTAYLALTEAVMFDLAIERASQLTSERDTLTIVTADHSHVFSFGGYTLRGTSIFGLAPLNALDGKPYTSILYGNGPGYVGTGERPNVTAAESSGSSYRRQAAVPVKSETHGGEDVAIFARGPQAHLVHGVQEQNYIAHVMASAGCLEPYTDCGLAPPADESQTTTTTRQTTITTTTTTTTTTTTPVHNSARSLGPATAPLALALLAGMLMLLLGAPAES

[17] = biological target: T7, Polyadenylate-binding protein 1 (Homo sapiens, UniProt P11940); experiment: MLLE binding blockers, Cy5 peptide tracer – biochemical, fluorescence polarization, Cy5-PAM2 peptide, secondary, miRNA deadenylation inhibitor project, dose response (AID 602260); conditions: read-out: IC50_Mean
T7 sequence (P11940 whole entry): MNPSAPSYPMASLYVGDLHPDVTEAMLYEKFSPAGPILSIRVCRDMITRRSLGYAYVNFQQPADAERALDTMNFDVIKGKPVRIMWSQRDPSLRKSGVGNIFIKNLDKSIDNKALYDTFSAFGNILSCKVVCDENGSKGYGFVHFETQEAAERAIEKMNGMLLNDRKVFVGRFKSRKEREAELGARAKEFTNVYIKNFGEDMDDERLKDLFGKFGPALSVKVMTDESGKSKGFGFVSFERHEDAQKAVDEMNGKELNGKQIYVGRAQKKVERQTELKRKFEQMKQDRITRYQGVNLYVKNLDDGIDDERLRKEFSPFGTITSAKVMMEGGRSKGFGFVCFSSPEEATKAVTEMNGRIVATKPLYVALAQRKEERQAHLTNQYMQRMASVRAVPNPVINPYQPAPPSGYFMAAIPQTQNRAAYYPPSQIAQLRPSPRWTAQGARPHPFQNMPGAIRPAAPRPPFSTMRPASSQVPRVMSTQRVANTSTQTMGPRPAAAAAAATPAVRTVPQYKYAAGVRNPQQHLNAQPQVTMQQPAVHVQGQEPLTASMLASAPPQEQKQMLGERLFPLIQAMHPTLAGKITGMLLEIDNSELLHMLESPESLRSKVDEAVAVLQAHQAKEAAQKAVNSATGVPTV

[18] = biological target: T8, Alkaline phosphatase, tissue-nonspecific isozyme (Homo sapiens, UniProt P05186); experiment: TNAP enzyme inhibition by screening hits, dose response, selectivity assay for mouse IAP inhibitor project, biochemical, human TNAP, uHTS hits (AID 488906)
T8 sequence (P05186 whole entry): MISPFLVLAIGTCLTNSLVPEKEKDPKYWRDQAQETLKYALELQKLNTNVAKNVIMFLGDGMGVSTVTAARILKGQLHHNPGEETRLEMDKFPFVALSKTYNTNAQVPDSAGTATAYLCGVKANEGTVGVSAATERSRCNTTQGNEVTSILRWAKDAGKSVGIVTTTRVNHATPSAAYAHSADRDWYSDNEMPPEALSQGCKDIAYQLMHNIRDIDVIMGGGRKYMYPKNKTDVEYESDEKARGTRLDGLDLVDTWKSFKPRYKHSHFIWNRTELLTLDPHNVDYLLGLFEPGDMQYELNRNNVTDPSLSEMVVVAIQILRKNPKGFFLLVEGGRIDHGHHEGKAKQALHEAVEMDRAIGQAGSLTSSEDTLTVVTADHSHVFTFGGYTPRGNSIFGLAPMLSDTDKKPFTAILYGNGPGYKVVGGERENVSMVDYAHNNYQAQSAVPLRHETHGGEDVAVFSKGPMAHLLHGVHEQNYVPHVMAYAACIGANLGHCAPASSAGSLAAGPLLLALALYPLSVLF

[19] = biological target: T7, Polyadenylate-binding protein 1; experiment: MLLE domain peptide-binding blockers, IC50 – biochemical, fluorescence polarization, FITC-PAM2 peptide, dose response (AID 602259); conditions: read-out: IC50_Mean

IC50 (Cannabinoid receptor 2 [1]): > 32 µM (inactive)
EC50 (Cannabinoid receptor 2 [2]): > 32 µM (inactive)
IC50 (Cannabinoid receptor 1 [3]): 6.63 µM (active)
IC50 [4]: 0.908 µM (active)
EC50 [5]: > 32 µM (inactive)
EC50 (Cannabinoid receptor 1 [6]): > 32 µM (inactive)
IC50 [7]: 0.831 µM (active)
IC50 [8]: > 32 µM (inactive)
SMILES: COc1ccc(S(=O)(=O)Nc2ccc(F)cc2)cc1N(C)S(=O)(=O)c1ccc(Cl)cc1

IC50 [9]: > 100 µM (inactive)
IC50 [10]: > 100 µM (inactive)
IC50 [11]: > 100 µM (inactive)
IC50 [12]: > 100 µM (inactive)
IC50 [13]: > 100 µM (inactive)
IC50 [14]: > 100 µM (inactive)
SMILES: O=C(O)COc1ccc(NC(=O)c2ccco2)cc1

EC50 [15]: 25.5 µM (active)
IC50 [16]: 11.2 µM (active)
IC50 [17]: > 66 µM (inactive)
IC50 [18]: > 100 µM (inactive)
IC50 [19]: > 66 µM (inactive)
SMILES: CCOC(=O)CN1C(=O)/C(=C2\SC(=S)N(NC(=O)c3cccnc3)C2=O)c2ccccc21
